Data as given in patent publication US11186544B2 (BRISTOL-MYERS SQUIBB COMPANY, priority 2017, dated 2021).

Legend:
human FPR2 = human FPR2 (Homo sapiens (Human), UniProt P25090); assay: FPR2 cyclic adenosine monophosphate (cAMP) assay; format: cell-based; details: CHO cells overexpressing human FPR2; inhibition of forskolin (5 μM) stimulated cAMP; read-out: hFPR2 cAMP2 EC50
Procedure: FPR2 and FPR1 Cyclic Adenosine Monophosphate (cAMP) Assays. A mixture of forskolin (5 μM final for FPR2 or 10 μM final for FPR1) and IBMX (200 μM final) were added to 384-well Proxiplates (Perkin-Elmer) pre-dotted with test compounds in DMSO (1% final) at final concentrations in the range of 0.020 nM to 100 μM. Chinese Hamster Ovary cells (CHO) overexpressing human FPR1 or human FPR2 receptors were cultured in F-12 (Ham's) medium supplemented with 10% qualified FBS, 250 μg/ml zeocin and 300 μg/ml hygromycin (Life Technologies). Reactions were initiated by adding 2,000 human FPR2 cells per well or 4,000 human FPR1 cells per well in Dulbecco's PBS (with calcium and magnesium) (Life Technologies) supplemented with 0.1% BSA (Perkin-Elmer). The reaction mixtures were incubated for 30 min at room temperature. The level of intracellular cAMP was determined using the HTRF HiRange cAMP assay reagent kit (Cisbio) according to manufacturer's instruction. Solutions of cryptate conjugated anti-cAMP and d2 flurorophore-labelled cAMP were made in a supplied lysis buffer separately. Upon completion of the reaction, the cells were lysed with equal volume of the d2-cAMP solution and anti-cAMP solution. […] The potency and activity of a compound to inhibit cAMP production was then determined by fitting to a 4-parametric logistic equation from a plot of cAMP level versus compound concentrations.

human FPR1 = human FPR1 (Homo sapiens (Human), UniProt P21462); assay: FPR1 cyclic adenosine monophosphate (cAMP) assay; format: cell-based; details: CHO cells overexpressing human FPR1; inhibition of forskolin (10 μM) stimulated cAMP; read-out: hFPR1 cAMP EC50
Procedure: FPR2 and FPR1 Cyclic Adenosine Monophosphate (cAMP) Assays. A mixture of forskolin (5 μM final for FPR2 or 10 μM final for FPR1) and IBMX (200 μM final) were added to 384-well Proxiplates (Perkin-Elmer) pre-dotted with test compounds in DMSO (1% final) at final concentrations in the range of 0.020 nM to 100 μM. Chinese Hamster Ovary cells (CHO) overexpressing human FPR1 or human FPR2 receptors were cultured in F-12 (Ham's) medium supplemented with 10% qualified FBS, 250 μg/ml zeocin and 300 μg/ml hygromycin (Life Technologies). Reactions were initiated by adding 2,000 human FPR2 cells per well or 4,000 human FPR1 cells per well in Dulbecco's PBS (with calcium and magnesium) (Life Technologies) supplemented with 0.1% BSA (Perkin-Elmer). The reaction mixtures were incubated for 30 min at room temperature. The level of intracellular cAMP was determined using the HTRF HiRange cAMP assay reagent kit (Cisbio) according to manufacturer's instruction. Solutions of cryptate conjugated anti-cAMP and d2 flurorophore-labelled cAMP were made in a supplied lysis buffer separately. Upon completion of the reaction, the cells were lysed with equal volume of the d2-cAMP solution and anti-cAMP solution. After a 1-h room temperature incubation, time-resolved fluorescence intensity was measured using the Envision (Perkin-Elmer) at 400 nm excitation and dual emission at 590 nm and 665 nm. A calibration curve was constructed with an external cAMP standard at concentrations ranging from 1 μM to 0.1 pM by plotting the fluorescent intensity ratio from 665 nm emission to the intensity from the 590 nm emission against cAMP concentrations. The potency and activity of a compound to inhibit cAMP production was then determined by fitting to a 4-parametric logistic equation from a plot of cAMP level versus compound concentrations.

Chain of human FPR2 (P25090 whole entry): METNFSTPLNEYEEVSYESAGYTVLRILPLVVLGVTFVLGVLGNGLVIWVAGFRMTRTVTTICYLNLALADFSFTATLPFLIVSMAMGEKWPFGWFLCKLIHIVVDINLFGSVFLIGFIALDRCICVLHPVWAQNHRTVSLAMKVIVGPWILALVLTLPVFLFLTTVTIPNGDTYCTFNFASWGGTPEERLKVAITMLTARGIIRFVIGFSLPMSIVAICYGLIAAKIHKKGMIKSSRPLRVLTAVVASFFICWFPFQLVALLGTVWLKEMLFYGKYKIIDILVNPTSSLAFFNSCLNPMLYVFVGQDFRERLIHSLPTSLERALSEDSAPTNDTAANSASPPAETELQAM
Chain of human FPR1 (P21462 whole entry): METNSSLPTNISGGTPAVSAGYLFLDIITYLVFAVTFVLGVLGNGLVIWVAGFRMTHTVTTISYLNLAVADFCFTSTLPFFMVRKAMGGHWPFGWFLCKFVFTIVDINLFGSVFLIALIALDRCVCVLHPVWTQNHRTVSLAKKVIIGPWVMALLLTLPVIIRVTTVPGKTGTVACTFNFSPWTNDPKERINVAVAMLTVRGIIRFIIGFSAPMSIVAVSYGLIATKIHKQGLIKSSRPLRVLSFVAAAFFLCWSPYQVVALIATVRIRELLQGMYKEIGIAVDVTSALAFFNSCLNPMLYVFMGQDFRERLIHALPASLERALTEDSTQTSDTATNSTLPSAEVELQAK

Row | SMILES | EC50 (human FPR2) [nM] | EC50 (human FPR1) [nM]
1 | NCc1cccc(-c2ccc(N3CCC[C@@H](NC(=O)Nc4ccc(Cl)cc4)C3=O)cc2)c1F [Example 276, (R)-1-(1-(3′-(Aminomethyl)-2′-fluoro-[1,1′-biphenyl]-4-yl)-2-oxopiperidin-3-yl)-3-(4-chlorophenyl)urea] | 8.5 | 680
2 | O=C(Nc1ccc(Cl)cc1)N[C@@H]1CCCN(c2ccc(-c3ccccc3CO)cc2)C1=O [Example 77] | 0.68 | 8.8
3 | COc1ccc(NC(=O)N[C@@H]2CCCN(c3ccc(-c4ccccc4NS(C)(=O)=O)cc3)C2=O)cc1 [Example 199] | 0.28 | 140
4 | CN(c1ncccc1-c1ccc(N2CCC[C@@H](NC(=O)Nc3ccc(C(F)(F)F)cc3)C2=O)cc1)S(C)(=O)=O [Example 145] | 0.36 | 15
5 | CS(=O)(=O)c1ccccc1-c1ccc(N2CCCC(NC(=O)Nc3ccc(F)cc3)C2=O)c(F)c1 (stereo not drawn) [Example 28, 1-(1-(3-fluoro-2′-(methylsulfonyl)-[1,1′-biphenyl]-4-yl)-2-oxopiperidin-3-yl)-3-(4-fluorophenyl)urea] | 560 | 1200
6 | CS(=O)(=O)Nc1ccccc1-c1ccc(N2CCC[C@@H](NC(=O)Nc3ccc(C(F)(F)F)cc3)C2=O)cc1 [Example 66] | 0.32 | 100
7 | NC(=O)c1ccccc1-c1ccc(N2CCC[C@@H](NC(=O)Nc3ccc(Cl)cc3)C2=O)c(F)c1 [Example 78] | 0.89 | 42
8 | CS(=O)(=O)Nc1ccccc1-c1ccc(N2CCC[C@@H](NC(=O)Nc3ccc(C(F)(F)F)cc3F)C2=O)cc1 [Example 212] | 0.63 | 120
9 | CS(=O)(=O)Nc1ccccc1-c1ccc(N2CCC[C@@H](NC(=O)Nc3ccc(Cl)cc3F)C2=O)c(Cl)c1 [Example 299, 1-[(3R)-1-{3-chloro-2′-methanesulfonamido-[1,1′-biphenyl]-4-yl}-2-oxopiperidin-3-yl]-3-(4-chloro-2-fluorophenyl)urea] | 5.5 | 130
10 | NC(=O)c1ccc(-c2ccc(N3CCCC(NC(=O)Nc4ccc(C(F)(F)F)cc4)C3=O)cc2)cc1 (stereo not drawn) [Example 48, 4′-(2-oxo-3-(3-(4-(trifluoromethyl)phenyl)ureido)piperidin-1-yl)-[1,1′-biphenyl]-4-carboxamide] | 560 | 930
11 | Cc1cnc(NC(=O)N[C@@H]2CCCN(c3ccc(-c4ccccc4NS(C)(=O)=O)cc3F)C2=O)cn1 [Example 258] | 20 | > 10000
12 | CS(=O)(=O)Nc1ccccc1-c1ccc(N2C[C@H](O)C[C@@H](NC(=O)Nc3ccc(Cl)cc3)C2=O)cc1 [Example 211] | 0.35 | 27
13 | O=C(Nc1ccc(C(F)(F)F)cc1)N[C@H]1CCCN(c2ccc(-c3ccccc3CO)cc2)C1=O [Example 58] | 9.2 | 280
14 | CS(=O)(=O)Nc1ccccc1-c1cc(F)c(N2CCC[C@@H](NC(=O)Nc3ccc(Cl)cc3)C2=O)c(F)c1 [Example 260, (R)—N-(4′-(3-(3-(4-chlorophenyl)ureido)-2-oxopiperidin-1-yl)-3′,5′-difluoro-[1,1′-biphenyl]-2-yl)methanesulfonamide] | 0.59 | 210
15 | CS(=O)(=O)Nc1ccccc1-c1ccc(N2C[C@H](O)C[C@@H](NC(=O)Nc3ccc(C(F)(F)F)cc3)C2=O)cc1 [Example 213] | 0.75 | 110
16 | COc1ccc(NC(=O)NC2CCCN(c3ccc(-c4ccccc4S(C)(=O)=O)cc3F)C2=O)cc1 (stereo not drawn) [Example 17, 1-(1-(3-fluoro-2′-(methylsulfonyl)-[1,1′-biphenyl]-4-yl)-2-oxopiperidin-3-yl)-3-(4-methoxyphenyl)urea] | 10 | 170
17 | O=C(Nc1ccc(C(F)(F)F)cc1)N[C@@H]1CCCN(c2ccc(-c3cncc(N4CCOCC4)c3)cc2)C1=O [Example 166] | 8 | 330
18 | O=C(Nc1ccc(C(F)(F)F)cc1)N[C@@H]1CCCN(c2ccc(-c3cccc(F)c3F)cc2)C1=O [Example 125] | 9 | 330

Row | SMILES | EC50 (human FPR2) [nM] | EC50 (human FPR1) [nM]
19 | N#Cc1ccccc1-c1ccc(N2CCC[C@@H](NC(=O)Nc3ccc(Cl)cc3)C2=O)cc1 [Example 76] | 0.81 | 10
20 | CS(=O)(=O)Nc1ccccc1-c1ccc(N2CCC[C@@H](NC(=O)Nc3ccc(C(F)(F)F)cn3)C2=O)cc1 [Example 184] | 8.1 | 1500
21 | CCOc1ncccc1-c1ccc(N2CCC[C@@H](NC(=O)Nc3ccc(C(F)(F)F)cc3)C2=O)cc1 [Example 129] | 9.4 | 170
22 | CS(=O)(=O)Nc1ccccc1-c1ccc(N2CCC[C@@H](NC(=O)Nc3ccc(Cl)cc3)C2=O)cc1 [Example 86] | 0.14 | 32
23 | Cc1ccc(NC(=O)N[C@@H]2CCCN(c3ccc(-c4ccccc4C(N)=O)cc3)C2=O)c(C)c1 [Example 175] | 520 | 2600
24 | CS(=O)(=O)Nc1ccccc1-c1ccc(N2CCC[C@@H](NC(=O)Nc3ccc(Cl)cc3F)C2=O)cc1 [Example 188] | 0.13 | 25
25 | CS(=O)(=O)Nc1ccccc1-c1ccc(N2C[C@H](O)C[C@H](NC(=O)Nc3ncc(Cl)cc3F)C2=O)cc1 [Example 214] | 2.24 | 160
26 | CS(=O)(=O)Nc1ccccc1-c1ccc(N2C[C@H](O)C[C@@H](NC(=O)Nc3ccc(Cl)cn3)C2=O)cc1 [Example 215] | 2 | 260
27 | COc1cc(-c2ccccc2NS(C)(=O)=O)ccc1N1CCC[C@@H](NC(=O)Nc2ncc(C(F)(F)F)cc2F)C1=O [Example 255] | 17 | 3300
28 | Cc1ccncc1-c1ccc(N2CCCC(NC(=O)Nc3ccc(C(F)(F)F)cc3)C2=O)cc1 (stereo not drawn) [Example 47, 1-(1-(4-(4-methylpyridin-3-yl)phenyl)-2-oxopiperidin-3-yl)-3-(4-(trifluoromethyl)phenyl)urea] | 330 | 1600
29 | O=C(Nc1ccc(Cl)cc1)NC1CCCN(c2ccc(-c3cccnc3)cc2)C1=O (stereo not drawn) [Example 16, 1-(4-chlorophenyl)-3-(2-oxo-1-(4-(pyridin-3-yl)phenyl)piperidin-3-yl)urea] | 9.3 | 390
30 | Cc1ccc(NC(=O)NC2CCCN(c3ccc(-c4cccnc4)cc3)C2=O)cc1 (stereo not drawn) [Example 15] | 8.4 | 200
31 | Cc1cnc(NC(=O)NC2CCCN(c3ccc(-c4ccccc4S(C)(=O)=O)cc3F)C2=O)s1 (stereo not drawn) [Example 26, 1-(1-(3-fluoro-2′-(methylsulfonyl)-[1,1′-biphenyl]-4-yl)-2-oxopiperidin-3-yl)-3-(5-methylthiazol-2-yl)urea] | 380 | 210
32 | NC(=O)c1ccccc1-c1ccc(N2CCC[C@@H](NC(=O)Nc3ccc(C(F)(F)F)cc3)C2=O)cc1 [Example 139] | 10 | 150
33 | COc1ccc(NC(=O)N[C@@H]2CCCN(c3ccc(-c4ccccc4C(N)=O)cc3)C2=O)cc1Cl [Example 176] | 780 | 1200
34 | COc1cnc(NC(=O)N[C@@H]2CCCN(c3ccc(-c4ccccc4NS(C)(=O)=O)c(F)c3)C2=O)c(F)c1 [Example 259] | 22 | 2000
35 | NC(=O)c1ccccc1-c1ccc(N2CCC[C@@H](NC(=O)Nc3ccc(F)cc3)C2=O)cc1 [Example 174] | 450 | 900
36 | COc1cc(-c2ccccc2NS(C)(=O)=O)ccc1N1CCC[C@@H](NC(=O)Nc2ccc(C(F)(F)F)cn2)C1=O [Example 256] | 17 | 1400
